Here are results for 13 compounds from patent US12403144B2, “HECT E3 ligase inhibitors and uses thereof” (IFOM FONDAZIONE ISTITUTO FIRC DI ONCOLOGIA MOLECOLARE, priority 2019, dated 2025).

Structures can show the parent of a compound that is named as a salt.

For assay [1], the target named is T1, untagged HECT of NEDD4 wild-type (WT) (E3 ligase) (Homo sapiens, UniProt P46934).
T1 construct: untagged HECT of NEDD4 wild-type (WT) (E3 ligase); made in house
T1 sequence (P46934 519-900 isoform P46934-4 limits assumed): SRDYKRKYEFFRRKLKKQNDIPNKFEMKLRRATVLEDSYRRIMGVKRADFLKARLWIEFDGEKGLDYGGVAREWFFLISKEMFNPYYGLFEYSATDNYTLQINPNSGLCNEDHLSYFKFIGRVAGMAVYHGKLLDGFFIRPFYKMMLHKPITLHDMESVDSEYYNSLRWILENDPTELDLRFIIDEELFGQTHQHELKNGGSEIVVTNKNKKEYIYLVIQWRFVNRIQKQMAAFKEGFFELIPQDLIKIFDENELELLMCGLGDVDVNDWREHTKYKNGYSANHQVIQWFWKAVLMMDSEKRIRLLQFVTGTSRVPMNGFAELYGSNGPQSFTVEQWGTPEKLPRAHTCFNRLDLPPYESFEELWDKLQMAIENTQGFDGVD
The experiment in a line: In vitro ubiquitination assay TR-FRET based (self-ubiquitination of NEDD4). In kind it is biochemical. Conditions: for inhibition at 11 µM: pre-incubated for 1 hour, AUC of 120 minutes kinetic, read-out: percentages of inhibition (NEDD4). The method, boiled down: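 Mix of E1, His-UBE2D3 and untagged NEDD4 HECT (final 30, 350, 50 nM) with Eu-cryptate/Cy5/unlabelled ubiquitin in pH 7.6 Tris buffer, compounds (100–0.005 μM dilution series) pre-incubated 1 h, then started with ATP. 665/620 nm TR-FRET followed 120 min; % inhibition from AUC versus DMSO, no-ATP background.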
Background: TR-FRET usually uses a lanthanide donor and a delayed reading to cut background.

The test system of another assay is DU145 cells. The experiment in a line: CellTiter-Glo Luminescent Cell Viability Assay, DU145. The class given is cell-based. Conditions: Homo sapiens, DU-145; 48 hours incubation; mean of at least two determinations; read-out: DU145 IC50 μM (antiproliferative activity). The text has this: CellTiter-Glo® Luminescent Cell Viability Assay (Promega, Catalog number: G7571) is a homogeneous method of determining the number of viable cells in culture based on quantitation of the present ATP, which indicates the presence of metabolically active cells. The homogeneous assay procedure involves addition of a single reagent (CellTiter-Glo® Reagent) directly to the cells, which leads to cell lysis and generation of a luminescent signal proportional to the amount of the ATP and the number of cells present in culture. The assay relies on the properties of a proprietary thermostable luciferase (Ultra-Glo® recombinant luciferase), which generates a luminescent signal.
DU145 cells (obtained from CLS Cell Lines Service GmbH item 300168) were grown in DMEM (Sigma Aldrich catalog number D6171-500 ml) supplemented with 10% Fetal Bovine Serum (Euroclone, catalog number. ECS0180L), 2 mM L-Glutamine (Euroclone catalog number LOBE17605F) and 100 U/ml penicillin-[…] streptomycin (EuroClone, ECB3001L). LNCaP cells (obtained from CLS Cell Lines Service GmbH item 300265) were grown in RPMI1640 (Lonza catalog number BE12-167F) supplemented with 10% Fetal Bovine Serum (Euroclone, catalog number. ECS0180L), 2 mM L-Glutamine (Euroclone catalog number LOBE17605F) and 100 U/ml penicillin-[…] streptomycin (EuroClone, ECB3001 L).
To determine the antiproliferative activity of the compounds, 3000 DU145 cells and 5000 LNCap cells were seeded in 96 multiwell plate (Sigma catalog number CLS9102) per well. 24 hours after seeding, the cells were incubated for 48 hours with different concentrations of the inhibitors (from 50 to 0 μM with a 3-fold dilution) dissolved in DMSO. After 48 hours, a volume of CellTiter-Glo® Reagent equal to the volume of cell culture medium was added. The content was mixed for 2 min to induce cell lysis. The luminescence was measured and recorded with Tecan Infinite 200 multimode plate reader after further 10 min at room temperature in order to obtain a stable luminescent signal.
The IC50 was calculated using GraphPad Software from the recorded luminescent signal.

As a reminder, the inhibition is the drop in the measured response relative to a control, in per cent. In the case of `C#CCON(C)C(=O)/C=C/CN(C)CCCCN1c2ccccc2CCc2ccc(Cl)cc21` [Compound 77, (E)-4-[4-(3-Chloro-10,11-dihydro-5H-dibenzo[b,f]azepin-5-yl)butyl-methyl-amino]-N-methyl-N-prop-2-ynoxy-but-2-enamide maleate], in assay [1], the inhibition at 11 µM is more than 50%.

For `CON(C)C(=O)/C=C/CN(C)CCCCN1c2ccccc2CCc2ccc(Cl)cc21` [Compound 9, (E)-4-[4-(3-Chloro-10,11-dihydro-5H-dibenzo[b,f]azepin-5-yl)butyl-methyl-amino]-N-methoxy-N-methyl-but-2-enamide], in assay [1], the inhibition at 11 µM was more than 50%.

In the case of `CCOC(=O)/C=C/CNCCCCN1c2cc(Cl)ccc2C(=O)N(Cc2ccccc2)c2ccccc21` [Compound 56, Ethyl (E)-4-((4-(10-benzyl-3-chloro-11-oxo-10,11-dihydro-5H-dibenzo[b,e][1,4]diazepin-5-yl)butyl)amino)but-2-enoate maleate], the inhibition at 11 µM in assay [1] was more than 50%.

On to `COC(=O)/C=C/CN(C)CCCCN1c2cc(Cl)ccc2C(=O)N(Cc2ccccc2)c2ccccc21` [Compound 58, Methyl (E)-4-{[4-(10-benzyl-3-chloro-11-oxo-10,11-dihydro-5H-dibenzo[b,e][1,4]diazepin-5-yl)butyl](methyl)amino}but-2-enoate maleate], for which the inhibition at 11 µM in assay [1] was more than 50%.

For `CN(C/C=C/C(=O)OCCOCCOCCOCCNC(=O)CCCC[C@@H]1SC[C@@H]2NC(=O)N[C@@H]21)CCCCN1c2ccccc2CCc2ccc(Cl)cc21` [Compound 94, 2-[2-(2-{2-[5-((3aS,4S,6aR)-2-Oxo-hexahydro-thieno[3,4-d]imidazol-4-yl)-pentanoylamino]-ethoxy}-ethoxy)-ethoxy]-ethyl (E)-4-{[4-(3-chloro-10,11-dihydro-dibenzo[b,f]azepin-5-yl)-butyl]-methyl-amino}but-2-enoate], the inhibition at 11 µM in assay [1] was more than 50%.

Consider `CCOC(=O)/C=C/CNCCCCN1c2ccccc2C(=O)N(C)c2ccc(Cl)cc21` [Compound 29, Ethyl (E)-4-{[4-(7-chloro-10-methyl-11-oxo-10,11-dihydro-5H-dibenzo[b,e][1,4]diazepin-5-yl)butyl]amino}but-2-enoate maleate], for which the inhibition at 11 µM in assay [1] was more than 50%.

The term IC50 denotes the point on the concentration scale where inhibition reaches its midpoint. As to `CCOC(=O)/C=C/CCNCCCN1c2ccccc2CCc2ccc(Cl)cc21` [Compound 5, Ethyl (E)-5-[3-(3-chloro-10,11-dihydro-5H-dibenzo[b,f]azepin-5-yl)propylamino]pent-2-enoate maleate], the 50% inhibitory concentration (IC50) with DU145 cells amounted to 7.68 µM. Also, the inhibition at 11 µM in assay [1] was more than 50%.

Turning to `CN(C/C=C/C#N)CCCCN1c2cc(Cl)ccc2C(=O)N(Cc2ccccc2)c2ccccc21` [Compound 61, (E)-4-{[4-(10-benzyl-3-chloro-11-oxo-10,11-dihydro-5H-dibenzo[b,e][1,4]diazepin-5-yl)butyl](methyl)amino}but-2-enenitrile maleate], the inhibition at 11 µM in assay [1] was more than 50%.

On to `CONC(=O)/C=C/CNCCCCN1c2ccccc2CCc2ccc(Cl)cc21` [Compound 78, (E)-4-[4-(3-Chloro-10,11-dihydro-5H-dibenzo[b,f]azepin-5-yl)butylamino]-N-methoxy-but-2-enamide maleate], for which the inhibition at 11 µM in assay [1] was more than 50%.

Take `CCOC(=O)/C=C/CNCCCCN1c2cc(Cl)ccc2C(=O)N(C)c2ccccc21` [Compound 42, Ethyl (E)-4-{[4-(3-chloro-10-methyl-11-oxo-10,11-dihydro-5H-dibenzo[b,e][1,4]diazepin-5-yl)butyl]amino}but-2-enoate maleate]: the IC50 in the assay on DU145 cells was found to be 9.18 µM. In assay [1], the inhibition at 11 µM is more than 50%.

Turning to `CCOC(=O)/C=C/CNCCCCN1c2ccccc2C(=O)N(Cc2ccccc2)c2ccc(Cl)cc21` [Compound 45, Ethyl (E)-4-{[4-(10-benzyl-7-chloro-11-oxo-10,11-dihydro-5H-dibenzo[b,e][1,4]diazepin-5-yl)butyl]amino}but-2-enoate maleate], in the assay with DU145 cells, the 50% inhibitory concentration (IC50) came to 4.97 µM. Moreover, the inhibition at 11 µM in assay [1] was more than 50%.

Regarding `CONC(=O)/C=C/CN(C)CCCCN1c2ccccc2CCc2ccc(Cl)cc21` [Compound 85, (E)-4-[4-(3-Chloro-10,11-dihydro-5H-dibenzo[b,f]azepin-5-yl)butyl-methyl-amino]-N-methoxy-but-2-enamide maleate], the half-maximal inhibitory concentration (IC50) in the assay with DU145 cells was found to be 11.3 µM. In addition, in assay [1], the inhibition at 11 µM was more than 50%.

As to `CCOC(=O)/C=C/CNCCCCN1c2ccccc2CCc2ccc(Cl)cc21.O=C(O)/C=C\C(=O)O` [Compound 12, Ethyl (E)-4-[4-(3-chloro-10,11-dihydro-5H-dibenzo[b,f]azepin-5-yl)butylamino]but-2-enoate maleate], the half-maximal inhibitory concentration (IC50) in the assay with DU145 cells stood at 6.81 µM. Moreover, in assay [1] (FIG. 1, HECT NEDD4 WT, concentrations indicated in the figure), the “inhibition of enzymatic activity, TR-FRET kinetic assay (% of signal/background during the time)” value is reported as “dose dependent inhibition of enzymatic activity”. In assay [1], the inhibition at 11 µM is more than 50%.
